Laboratory results published in PubChem BioAssay (NCI).
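The compound was tested at five concentrations on cells cultured in 96-well plates, with a 48-hour exposure period. Here, GI50 denotes the concentration required for 50% inhibition of growth. TGI: concentration producing complete growth inhibition.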

How the values were obtained:
Experiment in all cases: DTP human tumour cell line panel, 48 h
MCF7 breast = test system: MCF7 breast
SK-MEL-28 melanoma = test system: SK-MEL-28 melanoma
NCI-H226 lung = test system: NCI-H226 lung
HOP-62 NSCLC = test system: HOP-62 NSCLC
NCI/ADR-RES ovarian = test system: NCI/ADR-RES ovarian
SW-620 colon = test system: SW-620 colon
SK-MEL-5 melanoma = test system: SK-MEL-5 melanoma
HCT-116 colon = test system: HCT-116 colon
786-0 renal = test system: 786-0 renal
IGROV1 ovarian = test system: IGROV1 ovarian
ACHN renal = test system: ACHN renal
SN12C renal = test system: SN12C renal
MDA-MB-231 breast = test system: MDA-MB-231 breast
OVCAR-3 ovarian = test system: OVCAR-3 ovarian
UACC-62 melanoma = test system: UACC-62 melanoma
COLO 205 colon = test system: COLO 205 colon
SNB-75 CNS = test system: SNB-75 CNS
OVCAR-5 ovarian = test system: OVCAR-5 ovarian
A498 renal = test system: A498 renal
SK-OV-3 ovarian = test system: SK-OV-3 ovarian
MDA-MB-435 = test system: MDA-MB-435
HOP-92 NSCLC = test system: HOP-92 NSCLC
SF-539 CNS = test system: SF-539 CNS
OVCAR-8 ovarian = test system: OVCAR-8 ovarian
HS 578T breast = test system: HS 578T breast
HT29 colon = test system: HT29 colon
SK-MEL-2 melanoma = test system: SK-MEL-2 melanoma
DU-145 prostate = test system: DU-145 prostate
MALME-3M melanoma = test system: MALME-3M melanoma
CAKI-1 renal = test system: CAKI-1 renal
BT-549 breast = test system: BT-549 breast
CCRF-CEM leukemia = test system: CCRF-CEM leukemia
HCC-2998 colon = test system: HCC-2998 colon
K-562 leukemia = test system: K-562 leukemia
OVCAR-4 ovarian = test system: OVCAR-4 ovarian
T-47D breast = test system: T-47D breast
NCI-H23 lung = test system: NCI-H23 lung
A549 NSCLC = test system: A549 NSCLC
TK-10 renal = test system: TK-10 renal
UO-31 renal = test system: UO-31 renal
KM12 colon = test system: KM12 colon
NCI-H522 lung = test system: NCI-H522 lung
NCI-H460 lung = test system: NCI-H460 lung
SR leukemia = test system: SR leukemia
SF-295 CNS = test system: SF-295 CNS
PC-3 prostate = test system: PC-3 prostate
RXF 393 renal = test system: RXF 393 renal
M14 melanoma = test system: M14 melanoma
HCT-15 colon = test system: HCT-15 colon
HL-60(TB) leukemia = test system: HL-60(TB) leukemia
U251 CNS = test system: U251 CNS
RPMI-8226 leukemia = test system: RPMI-8226 leukemia
SNB-19 CNS = test system: SNB-19 CNS
UACC-257 melanoma = test system: UACC-257 melanoma
SF-268 CNS = test system: SF-268 CNS
MOLT-4 leukemia = test system: MOLT-4 leukemia

## N#Cc1c(Oc2ccc(F)c(NC(=O)Cc3cccc(C(F)(F)F)c3)c2)ccc2nc(NC(=O)C3CC3)sc12
MCF7 breast
  GI50: 1.11 µM
  TGI: > 100 µM
SK-MEL-28 melanoma
  GI50: 0.0292 µM
  TGI: > 100 µM
NCI-H226 lung
  GI50: 0.838 µM
  TGI: > 100 µM
HOP-62 NSCLC
  GI50: 0.472 µM
  TGI: > 100 µM
NCI/ADR-RES ovarian
  GI50: 1.28 µM
  TGI: > 100 µM
SW-620 colon
  GI50: 0.585 µM
  TGI: > 100 µM
SK-MEL-5 melanoma
  GI50: 0.206 µM
  TGI: 8.6 µM
HCT-116 colon
  GI50: 0.251 µM
  TGI: > 100 µM
786-0 renal
  GI50: 1.33 µM
  TGI: > 100 µM
IGROV1 ovarian
  GI50: 0.94 µM
  TGI: > 44.7 µM
ACHN renal
  GI50: 0.801 µM
  TGI: > 100 µM
SN12C renal
  GI50: 1.26 µM
  TGI: > 100 µM
MDA-MB-231 breast
  GI50: 0.422 µM
  TGI: 6.26 µM
OVCAR-3 ovarian
  GI50: 2.3 µM
  TGI: > 100 µM
UACC-62 melanoma
  GI50: 0.0262 µM
COLO 205 colon
  GI50: 0.0299 µM
  TGI: 2.63 µM
SNB-75 CNS
  GI50: 1.1 µM
  TGI: > 100 µM
OVCAR-5 ovarian
  GI50: 0.412 µM
  TGI: > 100 µM
A498 renal
  GI50: 0.224 µM
  TGI: 2.56 µM
SK-OV-3 ovarian
  GI50: 1.93 µM
  TGI: > 100 µM
MDA-MB-435
  GI50: 0.137 µM
  TGI: > 100 µM
HOP-92 NSCLC
  GI50: 0.278 µM
  TGI: 2.19 µM
SF-539 CNS
  GI50: 0.436 µM
  TGI: > 27.2 µM
OVCAR-8 ovarian
  GI50: 0.731 µM
  TGI: > 100 µM
HS 578T breast
  GI50: 0.534 µM
  TGI: 3.33 µM
HT29 colon
  GI50: 0.0533 µM
  TGI: > 100 µM
SK-MEL-2 melanoma
  GI50: 0.108 µM
  TGI: 0.83 µM
DU-145 prostate
  GI50: 2.34 µM
  TGI: > 100 µM
MALME-3M melanoma
  GI50: 0.0101 µM
  TGI: 0.0476 µM
CAKI-1 renal
  GI50: 0.744 µM
  TGI: > 100 µM
BT-549 breast
  GI50: 2.71 µM
  TGI: > 100 µM
CCRF-CEM leukemia
  GI50: 0.622 µM
  TGI: > 100 µM
HCC-2998 colon
  GI50: 0.581 µM
  TGI: > 100 µM
K-562 leukemia
  GI50: 0.385 µM
  TGI: > 100 µM
OVCAR-4 ovarian
  GI50: 2.6 µM
  TGI: > 100 µM
T-47D breast
  GI50: 3.22 µM
  TGI: > 100 µM
NCI-H23 lung
  GI50: 0.714 µM
  TGI: > 100 µM
A549 NSCLC
  GI50: 0.703 µM
  TGI: > 100 µM
TK-10 renal
  GI50: 1.86 µM
  TGI: > 100 µM
UO-31 renal
  GI50: 0.553 µM
  TGI: > 24.2 µM
KM12 colon
  GI50: 0.765 µM
  TGI: > 100 µM
NCI-H522 lung
  GI50: 0.942 µM
  TGI: > 25 µM
NCI-H460 lung
  GI50: 0.378 µM
  TGI: > 100 µM
SR leukemia
  GI50: 0.672 µM
  TGI: > 100 µM
SF-295 CNS
  GI50: 0.579 µM
  TGI: > 100 µM
PC-3 prostate
  GI50: 1.56 µM
  TGI: > 100 µM
RXF 393 renal
  GI50: 1.31 µM
  TGI: 5.39 µM
M14 melanoma
  GI50: 0.0275 µM
  TGI: 2.95 µM
HCT-15 colon
  GI50: 0.261 µM
  TGI: > 100 µM
HL-60(TB) leukemia
  GI50: 0.48 µM
  TGI: > 100 µM
U251 CNS
  GI50: 0.491 µM
  TGI: > 100 µM
RPMI-8226 leukemia
  GI50: 0.72 µM
  TGI: > 100 µM
SNB-19 CNS
  GI50: 0.828 µM
  TGI: > 100 µM
UACC-257 melanoma
  GI50: 0.0253 µM
  TGI: 0.203 µM
SF-268 CNS
  GI50: 1.35 µM
  TGI: > 100 µM
MOLT-4 leukemia
  GI50: 0.673 µM
  TGI: > 100 µM
